Values quoted from earlier work, collected in patent publication CN106749267A, “新的表皮生长因子受体抑制剂及其应用” (Nanjing Sanhome Pharmaceutical Co Ltd, priority 2015, dated 2017).
Read-outs that look alike come from different tables or passages of the source.

## C=CC(=O)Nc1cc(Nc2nccc(-c3cn(C)c4ccccc34)n2)c(OC)cc1N(C)CCN(C)C [AZD9291]
In vivo
  blood glucose increase side effect: 一定程度的升高

## C=CC(=O)Nc1cccc(Nc2nc(Nc3ccc(N4CCN(C(C)=O)CC4)cc3OC)ncc2C(F)(F)F)c1 [Rociletinib]
Literature report, hyperglycemia from EGFR TKIs
  blood glucose increase side effect: 一定程度的升高
